Measurements from US9700543B2, “GLP-1 receptor stabilizers and modulators” (Celgene International II SÀRL, priority 2011, dated 2017).

How the values were obtained:
[1] = Determination of absolute oral bioavailability in rats; assay type: in vivo; conditions: rat, plasma; fasted female Sprague-Dawley rats; oral solution 5 mg/kg, intravenous 1 mg/kg
Experimental: Determination of Absolute Oral Bioavailability in Rats
All pharmacokinetic studies were conducted in fasted female Sprague-Dawely rats (Simonsen Laboratories or Harlan Laboratories). Rats were housed in an ALAAC accredited facility and the research was approved by the facilities Institutional Animal Care and Use Committee (IACUC). The animals were acclimated to the laboratory for at least 48 h prior to initiation of experiments.
Compounds were formulated in 20% hydroxy beta cyclodextrin or 20% captisol and 80%-25 mM NaPO4 Buffer (pH 8) (intravenous infusion), or 5% DMSO/5% Tween20 and 90% water (oral gavage or intraperitoneal injection). The concentration of the dosing solutions was verified by HPLC-UV. For intravenous dosing, compounds were administered into the tail vein to manually restrained animals (n=3 rats/compound). The intravenous dose was 1 mg/kg. Oral dosing was by gavage using a standard stainless steel gavage needle (n=2-4 rats/compound). The oral solution dose was 5 mg/kg. For compounds 1 and 3, the oral solution dose was 30 mg/kg. For both routes of administration, blood was collected into BD Microtainer tubes with Dipotassium EDTA as the anticoagulantant eight time-points after dosing with the final sample drawn 24 h post dose Plasma was separated by centrifugation and transferred to a polypropylene 96-well plate and kept at 4° C. until analysis.
Proteins were precipitated by adding 150 μL acetonitrile to 50 μL of plasma. Plates were mixed for 1 min on a plate shaker to facilitate protein precipitation and then centrifuged at 3,000 rpm for 10 min to pellet protein. The supernatant was transferred to a clean plate and centrifuged at 3,000 rpm for 10 min to pellet any remaining solid material prior to LC/MS/MS analysis. Calibration curve standards were prepared by spiking 54 compound stock in DMSO into rat plasma from untreated animals. An eight point standard curve spanning a range of 0.14 nM to 300 nM was included with each bio-analytical run. The standards were processed identically to the rat pharmacokinetic samples.
Concentrations in the rat pharmacokinetic samples were determined using a standardized HPLC-LC/MS/MS method relative to the eight point standard curve. The system consisted of a Leap CTC Pal injector, Agilent 1200 HPLC with binary pump coupled with an Applied Biosystems 4000 QTrap. Compounds were chromatographed on a Phenomenex Luna C8(2) 20×2 mm 2 um Mercury Cartridge with Security Guard. A gradient method was used with mobile phase A consisting of 0.1% formic acid in water and mobile phase B consisting of 0.1% formic acid in acetonitrile at flow rates varying from 0.7 to 0.8 mL/min. Ions were generated in positive ionization mode using an electrospray ionization (ESI) interface. Multiple reaction monitoring (MRM) methods were developed specific to each compound. The heated nebulizer was set at 500° C. with a nebulizer current of 5.1 μA. Collision energies used to generate daughter ions ranged between 29 and 80 V. Peak area obtained from MRM of the mass transitions specific for each compound were used for quantification. The limit of quantification of the method was typically 1.2 nM. Data were collected and analyzed using Analyst software version 1.5.1. Blood concentration versus time data were analyzed using non-compartmental methods (WinNonlin Phoenix version 6.2; model 200 for oral or intraperitoneal dosing and model 202 for intravenous infusion). Absolute oral bioavailability (%) was calculated using the following expression: (Oral AUC×IV Dose)/(IV AUC×Oral Dose)×100.

GLP-1R = molecular target: T1, GLP-1R (Homo sapiens, UniProt P43220); assay: EC20 GLP-1(9-36) PAM cAMP assay: dose response of compound in the presence of fixed concentration of GLP-1(9-36); assay type: cell-based; conditions: compound dose response with fixed GLP-1(9-36), GLP-1R CRE-bla CHO-K1 cells; for EC20 GLP-1 (9-36) PAM Activity max cAMP: Emax as total cAMP; for EC50: cAMP
T1 construct: host or cells: CRE-bla CHO-K1
Experimental: EC20GLP-1(9-36) PAM cAMP Assay: Dose Response of Compound in the Presence of Fixed Concentration of GLP-1 (9-36)
GLP-1R CRE-bla CHO-K1 cells were seeded into 384-well white flat bottom plates at 10,000 cells/well/20 μL growth medium (DMEM-High glucose, 10% dialyzed FBS, 0.1 mM NEAA, 25 mM Hepes, 100 U/mL penicillin/100 μg/mL streptomycin, 5 μg/mL Blasticidin, 600 μg/mL Hygromycin) and incubated for 18 h at 37° C. in 5% CO2. Growth medium was replaced with 12 μL assay buffer (Hanks Balanced Salt solution, 10 mM Hepes, 0.1% BSA, pH7.4). A 5× compound dose response curve (12-point) was generated in assay buffer containing 1.5 mM IBMX, 12.5% DMSO. GLP-1(9-36) was diluted to 4.2 μM in assay buffer containing 1.5 mM IBMX and 12.5% DMSO. The 5× compound dose response was added (3 μL), followed by 0.5 μL of GLP-1(9-36) and cells were incubated for 30 min at 37° C. Direct detection of cAMP was carried out using DiscoveRx HitHunter cAMP kit according to manufacturer's instructions and luminescence was read using a SpectraMax M5 plate reader. Luminescence was converted to total cAMP using a cAMP standard curve and data was analyzed by non-linear regression to determine the EC50 and Emax.

T1 sequence (P43220 24-463): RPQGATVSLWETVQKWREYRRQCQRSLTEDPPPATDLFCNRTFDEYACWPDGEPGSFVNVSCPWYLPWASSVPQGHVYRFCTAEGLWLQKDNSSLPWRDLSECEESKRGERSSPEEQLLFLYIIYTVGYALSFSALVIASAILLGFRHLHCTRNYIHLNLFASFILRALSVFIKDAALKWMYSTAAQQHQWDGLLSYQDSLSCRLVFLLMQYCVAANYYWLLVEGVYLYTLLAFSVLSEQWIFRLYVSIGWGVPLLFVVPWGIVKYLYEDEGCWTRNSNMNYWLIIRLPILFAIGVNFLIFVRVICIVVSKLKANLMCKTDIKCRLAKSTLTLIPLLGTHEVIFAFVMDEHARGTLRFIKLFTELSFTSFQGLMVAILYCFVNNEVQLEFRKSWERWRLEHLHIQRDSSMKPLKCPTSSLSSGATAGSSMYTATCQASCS
T1 sequence (P01275 100-127 partner limits assumed): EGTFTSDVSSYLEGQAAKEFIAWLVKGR

| Structure (SMILES) | bioavailability [1] [%] | EC20 GLP-1 (9-36) PAM Activity max cAMP (GLP-1R) [nM] | EC50 (GLP-1R) [nM] |
| --- | --- | --- | --- |
| COc1ccc(CC(=O)Nc2ccc(C(=O)N(CC(=O)O)Cc3ccc(-c4nc(-c5ccc(C)cc5)no4)cc3)cc2)c(C(F)(F)F)c1 [Compound 363, 2-(4-(2-(4-methoxy-2-(trifluoromethyl)phenyl)acetamido)-N-(4-(3-(p-tolyl)-1,2,4-oxadiazol-5-yl)benzyl)benzamido)acetic acid] | 3 | 237 | 3200 |
| COc1ccc(CC(=O)Nc2ccc(C(=O)N(CC(=O)O)Cc3ccc(-c4coc(-c5ccc(-c6ccc(C)cc6)cc5)n4)cc3)cc2)c(C(F)(F)F)c1 [Compound 364, 2-(4-(2-(4-methoxy-2-(trifluoromethyl)phenyl)acetamido)-N-(4-(2-(4′-methyl-[1,1′-biphenyl]-4-yl)oxazol-4-yl)benzyl)benzamido)acetic acid] | 10 | 278 | 400 |
| COc1ccc(OC)c(CC(=O)Nc2ccc(C(=O)N(CC(=O)O)Cc3ccc(-c4noc(-c5ccc(-c6ccc(C)cc6)cc5)n4)cc3)cc2)c1 [Compound 405, 2-(4-(2-(2,5-dimethoxyphenyl)acetamido)-N-(4-(5-(4′-methyl-[1,1′-biphenyl]-4-yl)-1,2,4-oxadiazol-3-yl)benzyl)benzamido)acetic acid] | 8 | 206 | 300 |
| COc1ccc(F)c(CC(=O)Nc2ccc(C(=O)N(CC(=O)O)Cc3ccc(-c4noc(-c5ccc(-c6ccc(C)cc6)cc5)n4)cc3)cc2)c1F [Compound 441, 2-(4-(2-(2,6-difluoro-3-methoxyphenyl)acetamido)-N-(4-(5-(4′-methyl-[1,1′-biphenyl]-4-yl)-1,2,4-oxadiazol-3-yl)benzyl)benzamido)acetic acid] | 5 | 167 | 500 |
| COc1ccc(CC(=O)Nc2ccc(C(=O)N(CC(=O)O)Cc3ccc(-c4noc(-c5ccc(-c6ccc(C)cc6)cc5)n4)cc3)c(F)c2)c(C(F)(F)F)c1 [Compound 496, 2-(2-fluoro-4-(2-(4-methoxy-2-(trifluoromethyl)phenyl)acetamido)-N-(4-(5-(4′-methyl-[1,1′-biphenyl]-4-yl)-1,2,4-oxadiazol-3-yl)benzyl)benzamido)acetic acid] | 7 | 310 | 500 |

Now those with a lower EC50 (GLP-1R), led by results:

| bioavailability [1] [%] | EC20 GLP-1 (9-36) PAM Activity max cAMP (GLP-1R) [nM] | EC50 (GLP-1R) [nM] | Structure (SMILES) |
| --- | --- | --- | --- |
| 10 | 258 | 200 | COc1cccc(OC)c1CC(=O)Nc1ccc(C(=O)N(CC(=O)O)Cc2ccc(-c3noc(-c4ccc(-c5ccc(C)cc5)cc4)n3)cc2)cc1 [Compound 411, 2-(4-(2-(2,6-dimethoxyphenyl)acetamido)-N-(4-(5-(4′-methyl-[1,1′-biphenyl]-4-yl)-1,2,4-oxadiazol-3-yl)benzyl)benzamido)acetic acid] |
| 19.4 | 266 | 200 | COc1ccc(OC)c(CC(=O)Nc2ccc(C(=O)N(CC(=O)O)Cc3ccc(-c4nc(-c5ccc(-c6ccc(C)cc6)cc5)no4)cc3)cc2)c1 [Compound 457, 2-(4-(2-(2,5-dimethoxyphenyl)acetamido)-N-(4-(3-(4′-methyl-[1,1′-biphenyl]-4-yl)-1,2,4-oxadiazol-5-yl)benzyl)benzamido)acetic acid] |
| 14.8 | 302 | 200 | COc1cccc(OC)c1CC(=O)Nc1ccc(C(=O)N(CC(=O)O)Cc2ccc(-c3nc(-c4ccc(-c5ccc(C)cc5)cc4)no3)cc2)cc1 [Compound 458, 2-(4-(2-(2,6-dimethoxyphenyl)acetamido)-N-(4-(3-(4′-methyl-[1,1′-biphenyl]-4-yl)-1,2,4-oxadiazol-5-yl)benzyl)benzamido)acetic acid] |
